Experimental findings from patent publication US8263606B2 (Xenon Pharmaceuticals Inc., priority 2008, dated 2012) are described below.

The subject of one data set is sodium channel. The data set is described as follows: Guanidine influx assay (14C-guanidine radiotracer flux, in vitro). The settings on record: guanidine influx assay using a known cell line that expresses a sodium channel. The format is cell-based, human or rat. The method, boiled down: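 Test agents at half-step dilutions around 1 μM are added to plated cells in low-sodium HEPES buffer, then an aconitine/14C-guanidine mixture; after ambient-temperature incubation, cells are washed and counted. IC50 comes from a sigmoidal fit.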

For the next data set, the target named is CYP3A4 (Homo sapiens, UniProt P08684). Description: Cytochrome P450 (CYP450) Inhibition Assay, CYP3A4 (Vivid fluorescence, BOMCC substrate). The following applies: human, P450 Baculosomes (recombinant CYP3A4), probe BOMCC (Vivid substrate).
Sequence of CYP3A4 (P08684 whole entry): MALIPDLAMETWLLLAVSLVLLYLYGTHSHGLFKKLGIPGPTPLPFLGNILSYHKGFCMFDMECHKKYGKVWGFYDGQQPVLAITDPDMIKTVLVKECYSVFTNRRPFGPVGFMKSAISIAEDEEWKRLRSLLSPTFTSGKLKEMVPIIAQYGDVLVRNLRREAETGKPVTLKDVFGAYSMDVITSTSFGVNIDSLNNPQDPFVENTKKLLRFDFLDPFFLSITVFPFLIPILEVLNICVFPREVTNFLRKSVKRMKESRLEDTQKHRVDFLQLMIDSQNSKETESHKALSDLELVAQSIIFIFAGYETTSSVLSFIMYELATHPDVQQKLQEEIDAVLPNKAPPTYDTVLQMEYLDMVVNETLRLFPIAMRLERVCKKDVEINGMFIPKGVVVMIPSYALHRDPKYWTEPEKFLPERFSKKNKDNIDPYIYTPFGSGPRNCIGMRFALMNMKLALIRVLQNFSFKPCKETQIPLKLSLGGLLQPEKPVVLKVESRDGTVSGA

As to `Cc1nc2cc3c(cc2s1)C1(CO3)C(=O)Nc2ccccc21` (centres unmarked) [Example 1, 2-methylspiro[furo[2,3-f][1,3]benzothiazole-7,3′-indol]-2′(1′H)-one], the melting point was more than 250 °C. Besides, in the data set on sodium channel (activity level class), the IC50 lay in the range of 1000 to 10000 nM. In addition, the inhibition at 10 µM on CYP3A4 was less than 50%.
On the same counts, the results for `Cc1cccc(CN2C(=O)C3(COc4cc5c(cc43)OCCO5)c3ccccc32)n1` (centres unmarked) [Example 1.1, 1′-[(6-methylpyridin-2-yl)methyl]-2,3-dihydrospiro[furo[2,3-g][1,4]benzodioxine-8,3′-indol]-2′(1′H)-one] are 183 to 185 °C, 1 to 100 nM and more than 50%.
Turning to `Cc1cc(CN2C(=O)C3(COc4cc5c(cc43)OCO5)c3ccccc32)c(C)n1C(C)C` (centres unmarked) [Example 1.3, 1′-{[2,5-dimethyl-1-(1-methylethyl)-1H-pyrrol-3-yl]methyl}spiro[furo[2,3-f][1,3]benzodioxole-7,3′-indol]-2′(1′H)-one], the melting point was in the range of 169 to 171 °C. Further, in the data set on sodium channel (activity level class), the IC50 is 1 to 100 nM. Further, the inhibition at 10 µM at CYP3A4 was more than 50%.
The compound `O=C1N(Cc2ccc(Cl)s2)c2ccccc2C12COc1ccc(OCc3ccccc3)cc12` (centres unmarked) [Example 1.4, 5-(benzyloxy)-1′-[(5-chloro-2-thienyl)methyl]spiro[1-benzofuran-3,3′-indol]-2′(1′H)-one] registered a melting point of 132 to 135 °C. Also, the IC50 in the data set on sodium channel (activity level class) lay in the range of 1000 to 10000 nM. Besides, the inhibition at 10 µM on CYP3A4 was more than 50%.
On to `O=C1Nc2c(Br)cccc2C12COc1cc3c(cc12)OCO3` (centres unmarked) [Example 1.5, 7′-bromospiro[furo[2,3-f][1,3]benzodioxole-7,3′-indol]-2′(1′H)-one], for which the melting point was 240 °C (dec.). In addition, the IC50 with sodium channel (activity level class) was in the range of 1 to 100 nM. The inhibition at 10 µM at CYP3A4 was more than 50%.
In the case of `CC(C)c1cc(CN2C(=O)C3(COc4cc5c(cc43)OCO5)c3ccccc32)on1` (centres unmarked) [Example 1.6, 1′-[(3-isopropylisoxazol-5-yl)methyl]spiro[furo[2,3-f][1,3]benzodioxole-7,3′-indol]-2′(1′H)-one], the melting point was in the range of 132 to 136 °C. In addition, the IC50 in the data set with sodium channel (activity level class) is 1 to 100 nM. Besides, at CYP3A4, the inhibition at 10 µM was more than 50%.
`Cc1nc(CN2C(=O)C3(COc4cc5c(cc43)OCO5)c3ccccc32)c(C(F)(F)F)o1` (centres unmarked) [Example 1.9, 1′-{[2-methyl-5-(trifluoromethyl)-1,3-oxazol-4-yl]methyl}spiro[furo[2,3-f][1,3]benzodioxole-7,3′-indol]-2′(1′H)-one] came in with a melting point of 136 to 137 °C. In addition, the IC50 in the data set on sodium channel (activity level class) lay in the range of 1 to 100 nM. The inhibition at 10 µM on CYP3A4 was more than 50%.
On the same counts, the results for `O=C1N(Cc2ccc(Br)cn2)c2ccccc2C12COc1cc3c(cc12)OCCO3` (centres unmarked) [Example 1.14, 1′-[(5-bromopyridin-2-yl)methyl]-2,3-dihydrospiro[furo[2,3-g][1,4]benzodioxine-8,3′-indol]-2′(1′H)-one] are 201 to 202 °C, 1 to 100 nM and more than 50%.
On the same counts, the results for `O=C1N(Cc2cc(-c3ccc(Cl)cc3)oc2C(F)(F)F)c2ccccc2C12COc1cc3c(cc12)OCO3` (centres unmarked) [Example 1.15, 1′-{[5-(4-chlorophenyl)-2-(trifluoromethyl)furan-3-yl]methyl}spiro[furo[2,3-f][1,3]benzodioxole-7,3′-indol]-2′(1′H)-one] are 114 to 116 °C, 1000 to 10000 nM and less than 50%.
`Cn1nc(C(F)(F)F)c(CN2C(=O)C3(COc4cc5c(cc43)OCO5)c3ccccc32)c1Cl` (centres unmarked) [Example 1.16, 1′-{[5-chloro-1-methyl-3-(trifluoromethyl)-1H-pyrazol-4-yl]methyl}spiro[furo[2,3-f][1,3]benzodioxole-7,3′-indol]-2′(1′H)-one] showed a melting point of 180 to 182 °C. Also, in the data set on sodium channel (activity level class), the IC50 lay within 1 to 100 nM. In addition, the inhibition at 10 µM on CYP3A4 is more than 50%.
Compound `Cc1cc2c(cc1C)C1(CO2)C(=O)N(C(c2ccccc2)c2ccccc2)c2ccccc21` (centres unmarked) [Example 2.3, 1′-(diphenylmethyl)-5,6-dimethylspiro[1-benzofuran-3,3′-indol]-2′(1′H)-one] showed a melting point of 193 to 195 °C. Also, in the data set with sodium channel (activity level class), the IC50 was 1000 to 10000 nM. Also, the inhibition at 10 µM on CYP3A4 is less than 50%.
As for `COc1ccc(CN2C(=O)C3(COc4cc5onc(C)c5cc43)c3ccccc32)cc1` (centres unmarked) [Example 2.6, 1′-(4-methoxybenzyl)-3-methylspiro[furo[3,2-f][1,2]benzisoxazole-5,3′-indol]-2′(1′H)-one], the melting point was 138 to 139 °C. In the data set on sodium channel (activity level class), the IC50 lay in the range of 1 to 100 nM. For the same compound, at CYP3A4, the inhibition at 10 µM is more than 50%.
Take `O=C1N(C(c2ccccc2)c2ccccc2)c2ccccc2C12COc1ccc(F)cc12` (centres unmarked) [Example 2.9, 1′-(diphenylmethyl)-5-fluorospiro[1-benzofuran-3,3′-indol]-2′(1′H)-one]: the melting point is 182 to 184 °C. In the data set with sodium channel (activity level class), the IC50 was in the range of 1000 to 10000 nM. The inhibition at 10 µM at CYP3A4 is less than 50%.
In turn, `O=C1N(C(c2ccccc2)c2ccccc2)c2cccc(F)c2C12COc1cc3c(cc12)OCCO3` (centres unmarked) [Example 2.44, 1′-(diphenylmethyl)-4′-fluoro-2,3-dihydrospiro[furo[2,3-g][1,4]benzodioxine-8,3′-indol]-2′(1′H)-one] had a melting point of 196 to 198 °C. In the data set with sodium channel (activity level class), the IC50 fell in the range of 100 to 1000 nM.
`O=C1N(Cc2ccccn2)c2ccccc2C12COc1ccc3c(c12)OCCO3` (centres unmarked) [Example 4.127, 1-(pyridin-2-ylmethyl)-2,3-dihydrospiro[furo[3,2-f][1,4]benzodioxine-9,3′-indol]-2′(1′H)-one] gave a melting point of 132 to 134 °C. For the same compound, the IC50 with sodium channel (activity level class) lay in the range of 1000 to 10000 nM.
In the case of `O=C(O)c1ccc(CN2C(=O)C3(COc4cc5c(cc43)OCCO5)c3ccccc32)o1` (centres unmarked) [Example 11.32, 5-[(2′-oxo-2,3-dihydrospiro[furo[2,3-g][1,4]benzodioxine-8,3′-indol]-1′(2′H)-yl)methyl]furan-2-carboxylic acid], the melting point is 192 to 195 °C. Also, in the data set with sodium channel, the IC50 fell in the range of 1000 to 10000 nM.
Regarding `CN1C(=O)C2(COc3cc4c(cc32)OCCO4)c2c(C(=O)NC3CCC3)cccc21` (centres unmarked) [Example 16.77, N-cyclobutyl-1′-methyl-2′-oxo-1′,2,2′,3-tetrahydrospiro[furo[2,3-g][1,4]benzodioxine-8,3′-indole]-4′-carboxamide], the melting point was 128 to 129 °C. The inhibition at 10 µM on CYP3A4 is less than 50%.
Compound `COc1cccc(Oc2cccc3c2C2(COc4cc5c(cc42)OCCO5)C(=O)N3C)c1` (centres unmarked) [Example 16.79, 4′-(3-methoxyphenoxy)-1′-methyl-2,3-dihydrospiro[furo[2,3-g][1,4]benzodioxine-8,3′-indol]-2′(1′H)-one] came in with a melting point of 166 to 168 °C. For the same compound, on CYP3A4, the inhibition at 10 µM is more than 50%.
With `COc1ccc(Oc2cccc3c2C2(COc4cc5c(cc42)OCCO5)C(=O)N3C)cc1` (centres unmarked) [Example 16.84, 4′-(4-methoxyphenoxy)-1′-methyl-2,3-dihydrospiro[furo[2,3-g][1,4]benzodioxine-8,3′-indol]-2′(1′H)-one], the melting point was 55 to 58 °C. The inhibition at 10 µM at CYP3A4 was more than 50%.
In turn, `CN1C(=O)C2(COc3cc4c(cc32)OCCO4)c2c(OCc3ccccn3)cccc21` (centres unmarked) [Example 16.85, 1′-methyl-4-(pyridine-2-ylmethoxy)-2,3-dihydrospiro[furo[2,3-g][1,4]benzodioxine-8,3′-indol]-2′(1′H)-one] had a melting point of 181 to 183 °C. On CYP3A4, the inhibition at 10 µM was more than 50%.
Compound `CN1C(=O)C2(COc3cc4c(cc32)OCCO4)c2c(Oc3ccc(F)cc3)cccc21` (centres unmarked) [Example 16.87, 4′-(4-fluorophenoxy)-1′-methyl-2,3-dihydrospiro[furo[2,3-g][1,4]benzodioxine-8,3′-indol]-2′(1′H)-one] showed a melting point of 151 to 153 °C. For the same compound, the inhibition at 10 µM at CYP3A4 is more than 50%.
`Cc1nc(-c2cccc3c2C2(COc4cc5c(cc42)OCCO5)C(=O)N3C)cs1` (centres unmarked) [Example 25, 1′-methyl-4′-(2-methyl-1,3-thiazol-4-yl)-2,3-dihydrospiro[furo[2,3-g][1,4]benzodioxine-8,3′-indol]-2′(1′H)-one] came in with a melting point of 219 to 220 °C. Further, at CYP3A4, the inhibition at 10 µM was more than 50%.
Turning to `CN1C(=O)C2(COc3cc4c(cc32)OCCO4)c2c(-c3csc(N)n3)cccc21` (centres unmarked) [Example 26, 4′-(2-amino-1,3-thiazol-4-yl)-1′-methyl-2,3-dihydrospiro[furo[2,3-g][1,4]benzodioxine-8,3′-indol]-2′(1′H)-one], the melting point was 233 to 234 °C (dec.). In addition, the inhibition at 10 µM on CYP3A4 was more than 50%.
Compound `CN1C(=O)C2(COc3cc4c(cc32)OCCO4)c2c(-c3cc(O)[nH]n3)cccc21` (centres unmarked) [Example 27, 4′-(5-hydroxy-1H-pyrazol-3-yl)-1′-methyl-2,3-dihydrospiro[furo[2,3-g][1,4]benzodioxine-8,3′-indol]-2′(1′H)-one] gave a melting point of more than 250 °C. Besides, the inhibition at 10 µM at CYP3A4 was less than 50%.
`Nc1cccc(CN2C(=O)C3(COc4cc5c(cc43)OCCO5)c3ccccc32)n1` (centres unmarked) [Example 34, 1′-[(6-aminopyridin-2-yl)methyl]-2,3-dihydrospiro[furo[2,3-g][1,4]benzodioxine-8,3′-indol]-2′(1′H)-one] returned a melting point of 240 to 241 °C. Besides, the inhibition at 10 µM at CYP3A4 is more than 50%.
`O=C1N(C[C@H](O)CO)c2ccccc2C12COc1cc3c(cc12)OCCO3` (stereo partly drawn) [Example 40, 1′-[(2S)-2,3-dihydroxypropyl]-2,3-dihydrospiro[furo[2,3-g][1,4]benzodioxine-8,3′-indol]-2′(1′H)-one] yielded a melting point of 179 to 181 °C. The IC50 with sodium channel was 100 to 1000 nM.
